Experimental data reported in patent US9962383B2, “Compounds, compositions and methods of agelastatin alkaloids” (Massachusetts Institute of Technology, priority 2013, dated 2018).

How the values were obtained:
synchronized U-937 cells = test: Cell cycle arrest in thymidine-synchronized U-937 cells; assay type: cell-based, human; conditions: 16 hours, PI, flow cytometry
Method: Samples were fixed, treated with an RNAse, stained with PI, and analyzed by flow cytometry. Taxol, a microtubule stabilizer, was used as a positive control. Error bars represent standard deviation of the mean, n=3. * p<0.01. PI=propidium iodide.
U-937 cells were split to 50% confluency (250,000 cells/mL) and treated with 2 mM thymidine for 10 hours. The cells were then pelleted (500 g, 3 minutes) and washed with PBS before being resuspended in thymidine-free media and allowed to recover for 13 hours. The cells were then re-blocked with 2 mM thymidine for 10 hours, and then washed with PBS as before and resuspended in media (250,000 cells/mL).
DMSO stocks of compounds were added to a 24-well plate in triplicate (0.2% DMSO final), after which 1 mL of the prepared cell suspension was added. Following a 16 h incubation, the cell suspensions were transferred to 2 mL tubes and pelleted (600 g, 3 min). The media was removed by aspiration, and the cells were fixed with 0.5 mL of ice cold 70% ethanol with vortexing. The samples were fully fixed at −20° C. for 3 hours. The samples were then pelleted (1000 g, 5 min) and the supernatant was removed via aspiration. […] Prior to reading, the samples were taken up in 150 μL of 50 μg/mL propidium iodide in PBS and transferred to flow cytometry tubes. Samples were analyzed based on whole, single cells.

CEM = test: 48-hour IC50 by MTS, CEM acute lymphoblastic leukemia cells; assay type: cell-based, human
Method: Cells were grown in media supplemented with fetal bovine serum (FBS) and antibiotics (100 μg/mL penicillin and 100 U/mL streptomycin). […] Cells were incubated at 37° C. in a 5% CO2, 95% humidity atmosphere.
In a 96-well plate, compounds were pre-added as DMSO stocks (1% final) in triplicate to achieve final concentrations of 1 nM to 10 μM on a half log scale. DMSO and cell-free wells served as the live and dead control, respectively. […] IC50 values were determined from three or more independent experiments using TableCurve (San Jose, Calif.).

[1] = test system: human cell lines (U-937, HeLa, A549, BT549, IMR90); test: Ability to induce cell death in the panel of five human cell lines (Table 3); assay type: cell-based; conditions: 48-hour exposure, 1 nM to 10 μM, cell lines of Table 3
Method: Six (−)-agelastatins along with eight closely related derivatives prepared in the above examples were tested (Table 3). The six (−)-agelastatin alkaloids (1-6, respectively), (−)-O-methyl-di-epi-agelastatin A (50), (−)-dehydroagelastatin A (51), (−)-di-epi-agelastatin C (52), (+)-O-methyl-pre-agelastatin A and D (39 and 53, respectively), along with bicyclic pyrroles (+)-44, (+)-45, and triazone (+)-48 were tested for their ability to induce cell death in four human cancer cell lines (U-937, lymphoma; HeLa, cervical carcinoma; A549, non-small cell lung carcinoma; and BT549, breast carcinoma) and one immortalized normal human cell line (IMR90, lung fibroblasts) after a 48-hour exposure. […] Furthermore, enhanced activities in U-937 (20×) cell relative to the other cell lines (Table 3) were observed.
Adherent cells (HeLa, A549, BT549, and IMR90) were added into 96-well plates (5,000 cells/well for HeLa cell line; 2,000 cells/well for A549, BT549, and IMR90 cell lines) in 100 μL media and were allowed to adhere for 2-3 hours. Compounds were solubilized in DMSO as 100× stocks, added directly to the cells (100 μL final volume), and tested over a range of concentrations (1 nM to 10 μM) in triplicate (1% DMSO final) on a half-log scale. DMSO and cell-free wells served as the live and dead control, respectively. After 48 h of continuous exposure, the plates were evaluated using the SRB colorimetric assay as described previously (V. Vichai, K. Kirtikara, Nature Prot., 2006, 1, 1112). Briefly, media was removed from the plate, and cells were fixed by the addition of 100 μL cold 10% trichloroacetic acid in water. After incubating at 4° C. for 1 h, the plates were washed in water and allowed to dry. Sulforhordamine B was added as a 0.057% solution in 1% acetic acid (100 μL), and the plates were incubated at room temperature for 30 min, washed in 1% acetic acid, and allowed to dry. The dye was solubilized by adding 10 mM Tris base solution (pH 10.5, 200 μL) and incubating at room temperature for 30 min Plates were read at λ=510 nm. IC50 values were determined from three or more independent experiments using TableCurve (San Jose, Calif.).
In a 96-well plate, compounds were pre-added as DMSO stocks (1% final) in triplicate to achieve final concentrations of 1 nM to 10 μM on a half log scale. DMSO and cell-free wells served as the live and dead control, respectively. Suspension cells (U-937, CEM, CA46, Daudi, HL-60, and Jurkat; 10,000 cells/well) cells were distributed in 100 μL media to the compound-containing plate. After 48 h, cell viability was assessed by adding 20 μL of a PMS/MTS solution (A. H. Cory, T. C. Owen, J. A. Barltrop, J. G. Cory, Cancer Commun., 1991, 3, 207) to each well, allowing the dye to develop at 37° C. until the live control had processed MTS, and reading the absorbance at λ=490 nm. IC50 values were determined from three or more independent experiments using TableCurve (San Jose, Calif.).

tubulin dynamics = test: Tubulin microscopy with HeLa cells; assay type: cell-based, human; conditions: 16 hours, confocal microscopy
Method: HeLa cells were treated with compound for 16 hours, fixed, stained, and visualized using confocal microscopy.
Round, 1.5 mm coverslips (No. 1.5) were sterilized with ultraviolet light and placed in a 12-well plate. HeLa cells (100,000 cells/well) were added and allowed to adhere for eight hours. Compounds were then added as DMSO stocks to achieve a final DMSO concentration of 1%, and the plates were returned to the incubator for 16 hours.
Following incubation, the media was removed, and the coverslips were fixed with 0.5 mL Microtubulin Stabilizing Buffer (MTSB, 80 mM PIPES, pH 6.8, 1 mM MgCl2, 5 mM EGTA, 0.5% TX-100)+0.5% glutaraldehyde for 10 minutes at room temperature, after which the fixative was removed and the sample was quenched with the addition of 0.5 mL of freshly-prepared 1 mg/mL NaBH4 in PBS. After a 5 min incubation, the solution was removed by aspiration and the coverslips were washed with PBS.
Coverslips were transferred to parafilm-lined culture dishes (cell-side up), and 40 μL of 50 μg/mL RNase A in Antibody Diluting Solution (AbDil, PBS, pH 7.4, 0.2% TX-100, 2% BSA, 0.1% NaN3) with 1:50 dilution of anti-α-tubulin-FITC antibody was added to all samples. The samples were allowed to incubate at room temperature in the dark for 2.5 hours, after which the coverslips were washed three times with PBS+0.1% TX-100. […]

[2] = test system: procaspase-3 and PARP-1 cleavage; test: Western blot analysis of procaspase-3 and PARP-1 cleavage in U-937 cells; assay type: cell-based, human; conditions: 24 hours
Method: FIG. 2. […] Western blot analysis of procaspase-3 and PARP-1 cleavage at 24 hours in U-937 cells using β-actin as loading control. Compounds were tested at indicated concentrations and STS (10 nM); C3=caspase-3; PARP=poly(ADP-ribose) polymerase 1; PC3=procaspase-3; STS=staurosporine.

CN1C(=O)N[C@H]2[C@@H]3NC(=O)c4ccc(Br)n4[C@@H]3C[C@]21O [(−)-1, (−)-agelastatin A]
G2/M cell cycle arrest (synchronized U-937 cells): dose-dependent G2/M cell cycle arrest
IC50 (CEM): 20 ± 2 nM
activity (ability to induce cell death) in words [1]: highest potency in all cell lines tested
effect on tubulin dynamics (tubulin dynamics): do not affect tubulin dynamics
activation of procaspase-3 to active caspase-3 and cleavage of PARP-1 [2]: dose-dependent activation
